Experiments:
Type in all cases: in vivo, human
integrin beta 3 (ITGB3) = assay: SRM analysis of TMT-labelled platelet peptides, post:pre aspirin ratios
Description: Peptides identified in the discovery study from candidate proteins were taken forward if they were proteotypic and had characteristics suitable for robust SRM quantitation i.e. fully hydrolysed, contained no known modifications (either in vivo or experimental) and had suitable MS/MS fragments for Q3 selection. Up to six peptides per protein were selected for targeted quantitation (Table 2). The m/z of Q1 and Q3 transitions for selected peptides were calculated either from data-dependent sequencing in the discovery study or from in silico analysis using Pinpoint (ThermoFisher). The theoretical optimal collision energies for each transitions were also calculated using the discovery data and Pinpoint (ThermoFisher). Peptide dection and quantitation was based on time-alignment of multiple transitions per peptide (up to six transitions per peptide). Only peptides with consistant detection of multiple time-aligned transitions in all subject samples were used in the final quantitation. The final SRM method was then applied to the quantitative analysis of the experimental sample set. TMT-labeled subject samples (70/90 μg, check) were reduced, alkylated, digested in-solution and purified by RP and SCX chromatography. […] The SRM peak area for each pre-aspirin sample was measured relative to the SRM peak area for each post-aspirin sample. […]

platelets = assay: TMTsixplex GeLC-MS/MS discovery proteomics of platelet extracts pre and post aspirin treatment; conditions: for peptide/protein expression after aspirin treatment: 300 mg daily, 1 month oral
Description: To address the shortage of sensitive, robust and reliable markers of aspirin resistance the inventors undertook a comparative proteomic study of platelet extracts derived from samples known to be resistant and sensitive following 1 month's oral administration of therapeutic doses of aspirin (300 mg daily).
Briefly, platelets were purified from blood drawn from individuals with functionally documented aspirin resistance (n=2) or sensitivity (n=4). In each case matched samples were drawn pre- and post-aspirin treatment. Proteins were extracted, reduced and alkylated prior to labelling with a sixplex set of isobaric mass tags (TMTsixplex, Proteome Sciences plc; Refer to FIG. 1b). After labelling sets of six samples were pooled according to a randomised schedule and subjected to 1-dimensional SDS-PAGE. Each gel lane was cut into […] and each band subjected to in gel digestion using trypsin prior to analysis by LC-MS/MS to allow protein identification. Relative quantitation of each protein was achieved by comparing the ion intensity and area under the curve for each of the six TMT Reporter Ions and proteins showing a difference in levels between aspirin resistant and sensitive platelets were thus identified.
From 94 healthy subjects, 2 subjects were determined as aspirin resistance using measurements of platelet aggregommetry (agonist's arachidonic acid and ADP) and 11-dehydroTXB2 in urine. To be defined as truly aspirin resistant subjects must have an abnormal response with both measures. Subjects took 300 mg aspirin daily for 1 month.
Preparation of Platelet Samples 60 ml whole blood was obtained from subjects from the antecubital vein using a Butterfly®19-gauge needle, and collected into NaCl trisodium citrate (final concentration 0.38%). […]
Prior to analysis by GeLC-MS/MS 30 μg of each sample within a TMTsixplex experiment were mixed 1:1:1:1:1:1. The combined sample was analysed by GeLC-MS/MS with the entire gel lane being excised into 15 sections. […]

[1] = system: ITGB3 (Glycoprotein IIIa); assay: Western blotting of platelet lysates with N- and C-terminal specific antibodies; conditions: irrespective of platelet responsiveness status
Description: Platelet lysates from subjects (10 μg each) were mixed with equal volumes of Laemmli sample buffer (2×) (125 mM Tris-base, 4% SDS, 20% glycerol, 4% β-mercaptoethanol, 0.04% bromophenol blue), and subsequently loaded onto a 12.5% SDS-PAGE gel. Proteins were transferred onto PVDF membranes, and detected using specific antibodies as follows. Paired blots were incubated with Anti-GP111a C-terminal specific (Santa Cruz Biotechnology, Item code sc-6626, C-20) or anti GP111a N-terminal specific (Santa Cruz Biotechnology, Item code sc-6627, N-20) respectively. Bands were scanned and densitometric analysis performed using Image J system (a Java based image processing program developed by the National Institutes of Health, Bethesda, USA).

Integrin beta 3 = Integrin beta 3 isotyping SRM assay, post:pre aspirin ratio
Description: 50 ml of whole blood was drawn from subjects into trisodium citrate (final concentration 0.32%) from the antecubital vein using a Butterfly® 19-guage siliconised needle. Blood was centrifuged (20 min, 200×g, room temperature (RT)) to obtain platelet rich plasma (PRP) that was acidified with the addition of 0.3M citric acid (target pH 6.5). Further centrifugation (15 min, 1200×g, RT) produced the platelet pellet that was immediately re-suspended in citrate wash buffer (refer to Appendix 1 for composition) and prostaglandin E1 (Sigma) was added to a final concentration of 10 nM. Removal of residual red cells and monocytes was performed by further centrifugation (3 min, 200×g, RT) and decanting of the platelet rich supernatant. Final centrifugation (15 min, 1200×g, RT) produced the washed platelet pellet that was stored at −80° C. The washed platelet pellet was re-suspended in lysis buffer (NaCl 150 mM, Tris-base 32 mM, NaF 50 mM, Na orthovanadate 1 mM to which 1 ml ethylenediaminetetraacetic acid (EDTA; 0.1M stock solution) and 1 ml Triton-X 100 was added prior to adjusting to pH 7.6 with conc. HCL and volume made up to 100 ml) containing protease inhibitor cocktail (Sigma Aldrich, UK) and placed on ice for 30 min, before agitation on ice for a further 5 min. The sample was centrifuged (5 min, 9000×g, 4° C.) to remove cellular debris. The supernatant was stored at −80° C. Aspirin sensitivity was assessed in individuals prescribed aspirin for secondary prevention using a combination of functional and biochemical assays. […] The amount of endogenous (light) peptide is calculated based on the peak area ratio relative to the 100 fmol spiked heavy peptide. For individuals where samples were available pre and post treatment with Aspirin, a post to pre ratio was calculated to assess any changes in peptide levels. […] For the healthy normal cohort, pre and post aspirin samples were not available and the basal pg measured peptides level per μg total protein were reported.

[2] = system: platelet protein biomarkers of aspirin resistance; assay: Aspirin resistance biomarker SRM method (six biomarkers); conditions: two aspirin resistant and 10 aspirin sensitive platelet digests
From the text: The six markers are Integrin beta 3 (total) and Integrin beta 3 isoform A, heat shock protein A5, pyruvate kinase isozyme M1/M2, RAB GDP1 alpha & prostaglandin G/H synthase. For each marker two or three proteotypic tryptic peptides were selected and heavy isotope standard synthetic peptides were purchased from a commercial supplier (Thermo Scientific, Belgium). Platelet preparations from Example 3 were also used in the SRM method for simultaneous measurement of six biomarkers of aspirin resistance. Prior to analysis using Platelet Aspirin Resistance assay version 2.0 samples were resuspended in a solution containing 5 fmol/μL of each of the heavy AQUA peptides (See table 2) in the method and 200 μg/mL glucagon. Prior to SRM samples were resolved by RP-chromatography over a 9 minute ACN gradient (5-30%) in 0.2% formic acid at 100 μl/min. The Platelet Aspirin Resistance assay version 2.0 contains 96 SRM transitions, covering 17 peptides from 5 proteins. The SRM cycle time was 2 seconds with retention time windows used to maximise the scan time given to each SRM transition. Including washes and time to equalibrate the column, the total run time of the method was 30 minutes.

## CC(=O)Oc1ccccc1C(=O)O [aspirin, acetylsalicyclic acid]
Integrin beta 3 (ITGB3); aspirin resistant compared to aspirin sensitive subjects
  ITGB3 peptide specific for isoform beta 3A, post:pre aspirin: consistently showed significant changes
Integrin beta 3 (ITGB3); six subjects pre and post aspirin
  ITGB3 peptides common to all three isoforms, protein levels after treatment: no difference in protein levels
platelets; housekeeping proteins used for normalisation
  levels of vinculin, myosin and talin: not influenced by aspirin treatment
platelets; platelets from aspirin-resistant subjects
  peptide/protein expression after aspirin treatment: mostly down-regulation of peptide/protein expression
platelets; platelets from aspirin-sensitive individuals
  peptide/protein expression after aspirin treatment: remained broadly similar or increased
[1]
  intensity of staining of integrin beta 3 band, N-terminus antibody: consistent pre- and post-aspirin treatment
Integrin beta 3; majority of 10 aspirin sensitive patients
  integrin beta 3 isoform A level after aspirin: remained level or decreased
Integrin beta 3; majority of aspirin sensitive patients
  total integrin beta 3 levels after aspirin: remained relatively unchanged
Integrin beta 3; two aspirin resistant patients, 1 month treatment
  integrin beta 3 isoform A level after aspirin: expected increase
[2]
  aspirin-dependant expression of integrin beta 3 isoform A, heat shock protein A5, RAB GDP1 alpha, prostaglandin G/H synthase: consistent changes
  aspirin-dependant expression of pyruvate kinase isozyme M1/M2: more variable
